Assay results reported in US7153822B2, “Compositions and methods for modulating connexin hemichannels” (Wyeth, priority 2002, dated 2006).

Experiments:
infarcted mice = experiment: bone marrow cell transplantation after myocardial infarction (design of Orlic et al); format: in vivo; conditions: repeated administration during the proliferation process
Excerpt: Myocardial infarction leads to loss of tissue and impairment of cardiac performance. The remaining myocytes are unable to reconstitute the necrotic tissue, and the post-infarcted heart deteriorates with time. Injury to a target organ is sensed by distant stem cells, which migrate to the site of damage and undergo alternate stem cell differentiation; these events promote structural and functional repair. This high degree of stem cell plasticity prompted Orlic et al (Nature 410, 701–705 (2001)) to test whether dead myocardium could be restored by transplanting bone marrow cells in infarcted mice. They sorted lineage-negative (Lin−) bone marrow cells from transgenic mice expressing enhanced green fluorescent protein by fluorescence-activated cell sorting on the basis of c-kit expression. Shortly after coronary ligation, Lin− c-kitPOS cells were injected in the contracting wall bordering the infarct. […] The developing tissue comprised proliferating myocytes and vascular structures. Their studies indicate that locally delivered bone marrow cells can generate de novo myocardium, ameliorating the outcome of coronary artery disease. […]

connexin 43 (Cx43) = experiment: immunoprecipitation and immunoblot of phosphorylated connexin 43; format: cell-based; conditions: cultured H9c2 cardiomyocytes
Method: H9c2 cells were seeded in 24-multi well dishes in a density of 7,900 cells/cm^2 (˜15,000 cells/well) and grown for 3 days in MEM suplemented with 10% foetal calf serum (FCS) and 1000 units penicillin/1000 μg streptomycin (pen/strep) in an atmosphere of 5% CO2 and 100% humidity at 37° C.
The labelled cells were incubated in Triton X-100 lysis buffer (˜5*10^7 cells/ml) for 1 hr at 4° C. The lysate is centrifuged 30 min at 20,000*g for 30 min. The supernatant was precleared by adding 10 ul Sepharose per 200 μl supernatant. The precleared supernatant were then added 0.5–1 μg phospho-tyrosine or phospho-serine antibodies (Sigma) and incubated for 1.5 hr at 4° C. in an orbital shaker. The antibody-complex was then captured by incubation with 50 μl of a 1:1 slurry of protein G Sepharose for 1.5 hr. Finally the complex were extensively washed with 0.1% (w/v) Triton X-100, 50 mM Tris, pH 7.4, 300 mM NaCl and 5 mM EDTA.
The complexes were loaded onto a 12% SDS gel and blotted onto a PVDF membrane. The membrane is blocked with 0.1% Tween 20, 50 mM Tris, pH 7.4, 300 mM NaCl, 5% dry milk (TBST) for minimum 2 h. The membrane was subsequently incubated with connexin 43 specific antibodies (Zymed) for 1.5 h at RT and developed with ECL+ (Amersham).

## Ac-Gly-Asn-Tyr-NH2 [Compound 2]
Infarcted mice
  connexin 43 expression: increase in connexin 43 expression
Connexin 43 (Cx43)
  tyrosine phosphorylation of connexin 43: phosphorylation of Cx43 tyrosine
